Measured values reported in ChEMBL document CHEMBL4411258, “Novel natural compounds from endophytic fungi with anticancer activity” (Eur J Med Chem, 2018).
One block for each compound: values may come before it.

Experiments:
SMMC-7721 = assay: Cytotoxicity against human SMMC7721 cells after 48 hrs by MTT assay; format: functional, cell-based; details: Homo sapiens, SMMC-7721, 48 h; read-out: IC50
HL-60 [1] = assay: Cytotoxicity against human HL60 cells after 48 hrs by MTT assay; format: functional, cell-based; details: HL-60, 48 h
SW480 = assay: Cytotoxicity against human SW480 cells after 48 hrs by MTT assay; format: functional, cell-based; details: SW480, 48 h
MCF7 [2] = assay: Cytotoxicity against human MCF7 cells after 48 hrs by MTS assay; format: functional, cell-based; details: MCF7, 48 h
A549 [3] = assay: Cytotoxicity against human A549 cells after 48 hrs by MTT assay; format: functional, cell-based; details: Homo sapiens, A549, 48 h; read-out: IC50
RPMI-8226 = assay: Cytotoxicity against human RPMI8226 cells after 48 hrs by MTT assay; format: functional, cell-based; details: RPMI-8226, 48 h
MCF7 [4] = assay: Cytotoxicity against human MCF7 cells by MTT assay; format: functional, cell-based
U2OS = assay: Cytotoxicity against human U2OS cells by MTT assay; format: functional, cell-based
MIA PaCa-2 = assay: Cytotoxicity against human MIAPaCa2 cells after 48 hrs by MTT assay; format: functional, cell-based; details: MIA PaCa-2, 48 h
NCI-H460 = assay: Cytotoxicity against human NCI-H460 cells after 48 hrs by sulforhodamine B assay; format: functional, cell-based; details: Homo sapiens, NCI-H460, 48 h
MCF7 [5] = assay: Cytotoxicity against human MCF7 cells after 48 hrs by sulforhodamine B assay; format: functional, cell-based; details: Homo sapiens, MCF7, 48 h
HCT-116 [6] = assay: Cytotoxicity against human HCT116 cells after 48 hrs by sulforhodamine B assay; format: functional, cell-based; details: HCT-116, 48 h
A2780cisR = assay: Cytotoxicity against human A2780cisR cells after 72 hrs by CyQuant dye-based assay; format: functional, cell-based
A2780S = assay: Cytotoxicity against human A2780S cells after 72 hrs by CyQuant dye-based assay; format: functional, cell-based
Caco-2 = assay: Cytotoxicity against human Caco2 cells after 72 hrs by MTT assay; format: functional, cell-based; details: Caco-2, 72 h
MCF7 [7] = assay: Cytotoxicity against human MCF7 cells after 72 hrs by MTT assay; format: functional, cell-based; details: MCF7, 72 h
MDA-MB-231 [8] = assay: Cytotoxicity against human MDA-MB-231 cells after 72 hrs by MTT assay; format: functional, cell-based; details: MDA-MB-231, 72 h
GH3 = assay: Cytotoxicity against rat GH3 cells by MTT assay; format: functional, cell-based
MMQ = assay: Cytotoxicity against rat MMQ cells by MTT assay; format: functional, cell-based
DNA topoisomerase I = DNA topoisomerase I (Bos taurus, UniProt F1MN93); assay: Inhibition of calf thymus DNA topoisomerase 1 assessed as decrease in relaxation of supercoiled pBR322 DNA after 30 mins by Genview nucleic acid staining based agarose gel electrophoresis
HL-60 [9] = assay: Cytotoxicity against human HL60 cells; format: functional, cell-based
HeLa = assay: Cytotoxicity against human HeLa cells after 48 hrs by MTS assay; format: functional, cell-based
T-24 = assay: Cytotoxicity against human T24 cells after 48 hrs by MTS assay; format: functional, cell-based; details: T-24, 48 h
A549 [10] = assay: Cytotoxicity against human A549 cells after 48 hrs by MTS assay; format: functional, cell-based; details: A549, 48 h
MDA-MB-231 [11] = assay: Cytotoxicity against human MDA-MB-231 cells by MTS assay; format: functional, cell-based
THP-1 = assay: Cytotoxicity against human THP1 cells by MTS assay; format: functional, cell-based
A549 [12] = assay: Cytotoxicity against human A549 cells by MTS assay; format: functional, cell-based
HepG2 = assay: Cytotoxicity against human HepG2 cells by MTS assay; format: functional, cell-based
HCT-116 [13] = assay: Cytotoxicity against human HCT116 cells by MTS assay; format: functional, cell-based

Sequence of DNA topoisomerase I (F1MN93 whole entry): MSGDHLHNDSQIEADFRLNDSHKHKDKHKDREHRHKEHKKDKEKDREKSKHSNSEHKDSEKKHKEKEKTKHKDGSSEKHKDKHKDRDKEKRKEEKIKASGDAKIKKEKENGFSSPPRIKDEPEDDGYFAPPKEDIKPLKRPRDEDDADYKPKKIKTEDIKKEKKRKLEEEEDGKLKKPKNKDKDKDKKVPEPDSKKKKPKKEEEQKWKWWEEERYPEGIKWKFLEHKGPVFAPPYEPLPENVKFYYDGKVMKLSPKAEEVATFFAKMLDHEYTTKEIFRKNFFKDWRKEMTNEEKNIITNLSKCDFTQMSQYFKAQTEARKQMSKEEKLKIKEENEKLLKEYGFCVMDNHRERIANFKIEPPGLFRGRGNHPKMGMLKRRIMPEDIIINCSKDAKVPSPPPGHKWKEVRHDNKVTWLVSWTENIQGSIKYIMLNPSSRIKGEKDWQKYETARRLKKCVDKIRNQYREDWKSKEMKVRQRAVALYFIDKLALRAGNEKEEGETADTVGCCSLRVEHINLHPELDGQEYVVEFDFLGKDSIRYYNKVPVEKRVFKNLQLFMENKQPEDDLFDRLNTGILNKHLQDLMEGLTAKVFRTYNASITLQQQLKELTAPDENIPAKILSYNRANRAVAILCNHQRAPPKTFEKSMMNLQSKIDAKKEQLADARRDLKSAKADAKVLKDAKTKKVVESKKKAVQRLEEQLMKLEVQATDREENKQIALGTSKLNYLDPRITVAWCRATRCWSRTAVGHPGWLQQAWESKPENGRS

SMILES: COC(=O)C1=C[C@@H](C)C[C@H]2CC[C@@H](O)[C@@]12O
IC50 (SMMC-7721): 3.6 to 16.2 µM | IC50 (HL-60 [1]): 3.6 to 16.2 µM | IC50 (SW480): 3.6 to 16.2 µM | IC50 (MCF7 [2]): 3.6 to 16.2 µM | IC50 (A549 [3]): 3.6 to 16.2 µM | IC50 (RPMI-8226): 3.6 to 16.2 µM

SMILES: Cc1cc(O)c(C(=O)c2cc(O)cc(O)c2C=O)c(O)c1
IC50 (MCF7 [4]): 16.8 µM | IC50 (U2OS): 11.6 µM

SMILES: CCCCC/C=C1/C(=O)OC(=O)[C@@H]1C
IC50 (MIA PaCa-2): 16 µM

SMILES: C/C=C/[C@@H]1OC(=O)C2=C[C@H](O)[C@@H](/C=C/C)O[C@H]21
IC50 (NCI-H460): 1 µM | IC50 (MCF7 [5]): 22.5 µM | IC50 (HCT-116 [6]): 6.2 µM

SMILES: CCCCC/C=C/C1=C(CO)C(=O)[C@H]2O[C@@]2(C/C=C(\C)C(=O)O)C1=O
IC50 (A2780cisR): 5.1 µM | IC50 (A2780S): 3.3 µM

SMILES: OCC(O)C(O)C(O)C(O)C(O)O[C@H]1[C@H](O)[C@@H](O)[C@H](O)O[C@@H]1CO (stereo not given in full)
EC50 (Caco-2): 99.4 µM | EC50 (MCF7 [7]): 97.6 µM | EC50 (MDA-MB-231 [8]): 92.4 µM

SMILES: Cc1cc(O)cc2c1Oc1c(Cc3ccc(O)cc3)c(O)cc(C)c1C(=O)O2
IC50 (GH3): 3.64 µM | IC50 (MMQ): 3.09 µM

IC50 (DNA topoisomerase I): 23 µM
SMILES: Cc1cc(O)c2c(c1)[C@H](O)[C@H]1C=C[C@H](O)[C@@H](O)[C@@H]1C2=O

SMILES: COc1cc2c(c3c1Cc1c(cc(O)c(CO)c1C(=O)O)O3)C[C@H]1[C@H](C)CO[C@@]1(C)O2
IC50 (HL-60 [9]): 12.4 µM

SMILES: COC(=O)c1cc(OC)cc(O)c1C(=O)c1c(O)cc(C)c2c1O[C@@](C)(CC(=O)[C@@]13C[C@H](O)[C@@H]4O[C@]4(CC=C(C)C)[C@@H]1O3)C2
IC50 (HeLa): 44.3 µM | IC50 (T-24): 39.3 µM | IC50 (A549 [10]): 35.3 µM | IC50 (MCF7 [2]): 38.3 µM

SMILES: CCOC(=O)c1c(O)cc(O)cc1CCCCCCCC(C)O (stereo not given)
IC50 (MDA-MB-231 [11]): 10.1 µM | IC50 (THP-1): 39.7 µM | IC50 (A549 [12]): 13.3 µM | IC50 (HepG2): 12.5 µM | IC50 (HCT-116 [13]): 11.9 µM
